Like-named read-outs stand apart in the source and are kept apart here.

In data set [1] the target is T1, desmolase (Bos taurus, UniProt P00189).
T1 construct: The mitochondrial fraction of bovine adrenal cortex provided the source of desmolase; from tissue; host or cells: bovine adrenal cortex, mitochondrial fraction
T1 sequence (P00189 40-520): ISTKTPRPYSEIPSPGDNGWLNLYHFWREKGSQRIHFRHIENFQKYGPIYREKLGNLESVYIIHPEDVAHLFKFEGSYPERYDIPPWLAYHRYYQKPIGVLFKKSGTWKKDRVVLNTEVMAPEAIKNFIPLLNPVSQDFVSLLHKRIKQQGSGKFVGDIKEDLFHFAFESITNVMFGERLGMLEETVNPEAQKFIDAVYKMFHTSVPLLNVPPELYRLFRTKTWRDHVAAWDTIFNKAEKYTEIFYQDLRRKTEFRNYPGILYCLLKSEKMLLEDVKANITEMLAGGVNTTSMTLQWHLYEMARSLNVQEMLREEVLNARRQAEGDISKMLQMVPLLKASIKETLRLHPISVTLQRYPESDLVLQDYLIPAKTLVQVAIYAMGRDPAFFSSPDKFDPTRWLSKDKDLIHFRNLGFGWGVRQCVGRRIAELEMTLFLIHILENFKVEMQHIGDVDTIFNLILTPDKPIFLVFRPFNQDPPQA
In words: Inhibition of desmolase (mitochondrial fraction of bovine adrenal cortex, 14C-isocaproic acid release from (26-14C)-cholesterol). It counts as biochemical. The conditions noted are these: for IC50 Desmolase: 7 micromolar (14C) cholesterol.
Description: (§1) The activity of various glutarimides against the enzymes aromatase and desmolase was assayed as follows. Each compound was examined over a range of concentrations. At each concentration of inhibitor, samples were removed at three time points. The results were plotted on a graph of product released against time of incubation. The resulting linear graph was used to determine the rate of enzyme reaction at each concentration of inhibitor.
(§2) A. Desmolase The mitochondrial fraction of bovine adrenal cortex provided the source of desmolase and the method of isolation was essentially as published by R. B. Hochberg et al., Biochemistry, 13, 603 (1974). The enzyme activity was assayed using (26-^14 C)-cholesterol as substrate and measuring the ^14 C-isocaproic acid released, see R. B. Hochberg et al., supra. and V. I. Uzgiris et al., Endocrinology, 101, 89 (1977). Inhibitor compounds were added in ethanol (microliters) and an equal volume of ethanol was added to the control assay. The total volume of the assay mixture was 1.0 ml. After preincubating the assay tubes at 30° C. for 5 minutes, the reaction was started by the addition of 1 mg of mitochondrial protein. Samples were removed after 2,4 and 6 minutes of incubation and the assay completed as described.

Data set [2] addresses T2, aromatase (Homo sapiens, UniProt P11511).
T2 construct: Aromatase was obtained from the microsomal fraction of human placental tissue; from tissue; host or cells: human placenta, microsomal fraction
T2 sequence (P11511 1-503): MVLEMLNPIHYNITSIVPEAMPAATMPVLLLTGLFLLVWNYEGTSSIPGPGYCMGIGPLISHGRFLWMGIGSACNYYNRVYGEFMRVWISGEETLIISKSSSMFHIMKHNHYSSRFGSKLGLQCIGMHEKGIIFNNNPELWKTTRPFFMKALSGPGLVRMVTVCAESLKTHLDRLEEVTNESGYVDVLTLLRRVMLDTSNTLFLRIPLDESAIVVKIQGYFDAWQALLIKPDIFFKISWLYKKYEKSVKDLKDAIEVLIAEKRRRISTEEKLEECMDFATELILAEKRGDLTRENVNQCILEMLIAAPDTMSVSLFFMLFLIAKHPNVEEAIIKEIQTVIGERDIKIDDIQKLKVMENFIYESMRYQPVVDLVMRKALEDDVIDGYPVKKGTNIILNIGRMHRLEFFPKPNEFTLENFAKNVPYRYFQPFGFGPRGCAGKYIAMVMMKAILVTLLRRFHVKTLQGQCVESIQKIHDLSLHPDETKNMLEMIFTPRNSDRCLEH
Description: Inhibition of aromatase (microsomal fraction of human placental tissue, 3H2O release from (1,2-3H) testosterone). It counts as biochemical.
Description: as §1, §2

For data set [3] the following is noted: prior art; cited from earlier work.
Data set [4] relates to Rat mammary tumours induced with MNU (N-methyl-N-nitrosourea). In words: Tests in vivo on tumour regression, MNU-induced rat mammary tumours. Also noted: species or system rat (Ludwig Wistar/Ola, WF/ICRF/Ola, female). The protocol: Unlike DMBA (7,12-dimethylbenz[a]anthracene) induced tumours, MNU tumours may be primarily oestrogen-, rather than prolactin-dependent, see Pruitt, Rose and Bryan, Proc. Ann. Cancer Res. 20, 87, (1979).
Using the method of Williams et al., supra, mammary tumours were induced in virgin female rats of the inbred strain Ludwig Wistar/Ola (WF/ICRF/Ola) by intravenous administration of MNU. MNU was dissolved in 0.9% aqueous sodium chloride solution acidified to pH 5 with acetic acid. Starting at age 50 days, each rat received 3 injections at 14 day intervals via the tail vein (5 mg MNU/100 g body weight/injection; injection volume of 0.5 ml/rat). Animals were assigned to experimental groups at 125-140 days after the first injection, with 12 animals in each group. At this time they bore from 1-3 tumours per animal.
Controls received equivalent injections of DMSO alone.
Results were expressed in terms of the percentage of initial tumour volume for each tumour after 42 day, treatment.

For data set [5], the system named is central nervous system. In words: Studies on anticonvulsant properties, pentylenetetrazol-induced convulsions.
Data set [6] deals with central nervous system. Description: Behavioral observations (Irwin observational assessment). Conditions: for Passivity: rating 0-4, 20-30 minutes after injection.
Data set [7] can be described thus: Stability of injection solutions at pH 3.5-4. It counts as physicochemical. The conditions noted are these: 50 mg. The protocol: This went into solution at low pH very nicely. M NaOH was added to pH 3.5-4. The volume was made up using deionized water.
In data set [8] the test system is central nervous system. In words: Rotating rod experiments (rotarod test), drug-induced ataxia. For orientation: In the rotarod test animals must keep their balance on a rotating rod.
The mark [9] stands for this setting: after 6 weeks (42 days), 0.165 millimoles/kg/day s.c.
Setting [10] is: compared with aminoglutethimide.
[11] abbreviates: 1.5 micromolar (3H) testosterone.

As to `CCC1(c2ccccc2)CCC(=O)N(N)C1=O` (stereo not drawn) [N-aminoglutethimide, 1-amino-3-ethyl-3-phenylglutarimide], the Desmolase inhibition result in data set [1] is “+ + +”.

Turning to `CCC1(c2ccccn2)CCC(=O)NC1=O` (stereo not drawn) [drawing 11], the “IC50 Desmolase” value in data set [1] is on record as “None”. In addition, the “IC50 Aromatase” value in data set [2] is given as “None”.

Regarding `CCC1(c2ccccn2)CCC(=O)NC1=O` (stereo not drawn) [3-ethyl-3-(2-pyridyl)-glutarimide], in data set [3], the “sedative, hypnotic or anti-convulsive effect” value is “sedative and hypnotic effect”.

Turning to `CCC1(c2ccccc2)CCC(=O)NC1=O` (stereo not drawn) [glutethimide, 3-ethyl-3-phenylglutarimide], the “sedative, hypnotic or anti-convulsive effect” value in data set [3] was “sedative and hypnotic agent”.

Turning to `CCC1(c2ccncc2)CCC(=O)NC1=O` (stereo not drawn) [3-ethyl-3-(4-pyridyl)glutarimide, 3-ethyl-3-(4-pyridyl)-2,6-piperidinedione], the “percentage of tumours which regress (in words)” value in data set [4] (42 days, 0.165 millimoles/kg/day s.c.) is “shows a similar effect”. Also, in data set [4] (setting [9]), the “No. tumours grown by more than 100%” value turned out to be 8 tumours, the “No. tumours grown by up to 100%” value is reported as 6 tumours, the “No. tumours regressed but by less than 50%” value is 3 tumours and the “No. tumours regressed by 50% or more” value came out at 9 tumours. Besides, the “No. tumours with no change” value in data set [4] (setting [9]) was found to be 1 tumours. Besides, in data set [4] (setting [10]), the “inhibition of tumour growth (in words)” value is on record as “at least as effective an inhibitor of tumour growth in this assay as aminoglutethimide”. In addition, in data set [1], the “Desmolase inhibition (in words)” value is given as “inhibits aromatase but not desmolase” and the “IC50 Desmolase” value is “None”. The “prevention of pentylenetetrazol-induced convulsions” value in data set [5] (400, 300 and 200 mg/kg i.p., pentylenetetrazol 50 mg/kg) was “None of these doses prevented the pentylenetetrazol-induced convulsions”. In data set [5] (setting [10]), the anti-convulsant side-effects result was “lower than that of aminoglutethimide”. In data set [6] (200 mg/kg i.p.), the Abnormal gait result is listed as “-”, the Corneal reflex entry is “+”, the Flexor reflex entry is “+” and the Grooming result was “-”. Further, in data set [6] (200 mg/kg i.p.), the Motor activity entry is listed as “N”, the Righting reflex result is listed as “+”, the Tremors entry is reported as “-” and the Twitches result is “-”. Further, in data set [6] (200 mg/kg i.p.), the “observable differences from control mice (in words)” value is reported as “no grossly observable differences from the control mice” and the Passivity stood at 0. In data set [6] (300 mg/kg i.p.), the Abnormal gait entry is listed as “-”, the Corneal reflex entry is recorded as “+”, the Flexor reflex result was “+” and the Grooming entry is on record as “+”. Besides, in data set [6] (300 mg/kg i.p.), the Motor activity result was “N”, the Righting reflex result is listed as “+”, the Tremors result is recorded as “-” and the Twitches result is recorded as “-”. The “spontaneous motor activity and struggle response (in words)” value in data set [6] (300 mg/kg i.p.) is “some mice showed slight reduction in spontaneous motor activity and diminished struggle response”. Besides, in data set [6] (400 mg/kg i.p.), the Corneal reflex result was “+”, the Flexor reflex result was “+”, the Grooming result is listed as “+” and the Motor activity entry is listed as “Dec”. Moreover, in data set [6] (400 mg/kg i.p.), the Righting reflex entry is listed as “+”; the Tremors entry is reported as “-”; the Twitches result was “-”; the “activity, passivity and hindlimb control (in words)” value is “all mice were noticeably less active, more passive and had lost some control of their hindlimbs”. Besides, in data set [6] (400 mg/kg i.p.), the “reflexes (in words)” value is “All reflexes were still evident and the augmented flexor reflex, as had been noted with APG and CPZ-treated animals, was not present”; the Passivity is 3. In addition, the lethality result in data set [6] (500 mg/kg i.p., three mice) is listed as “lethal to the three mice tested”. The sedative side-effects entry in data set [6] (setting [10]) is reported as “lower than that of aminoglutethimide”. Besides, the “time within which salt came out of solution” value in data set [7] is at most 15 min. In addition, in data set [8] (300 mg/kg i.p.), the “effect on motor co-ordination (in words)” value is “little difference from the control”. Moreover, in data set [8] (400 mg/kg i.p.), the “effect on motor co-ordination (in words)” value is “the mice became more rigid, and while falling off the faster rod more frequently they tended to slump round the slowly rotating rod, and so stay on for a longer time”. This compound also gave a Falls/2 min in data set [8] (1 r.p.m., 15 min, 300 mg/kg i.p.) of 0.6 ± 0.3 Falls/2 min. This compound also registered a Falls/2 min in data set [8] (1 r.p.m., 15 min, 400 mg/kg i.p.) of 0.8 ± 0.4 Falls/2 min. For the same compound, the Falls/2 min in data set [8] (1 r.p.m., 30 min, 400 mg/kg i.p.) amounted to 0.4 ± 0.2 Falls/2 min. Also, the Falls/2 min in data set [8] (3 r.p.m., 15 min, 300 mg/kg i.p.) worked out at 1.5 ± 0.5 Falls/2 min. Besides, in data set [8] (3 r.p.m., 15 min, 400 mg/kg i.p.), the Falls/2 min was 4.8 ± 1.0 Falls/2 min. The compound further had a Falls/2 min in data set [8] (3 r.p.m., 30 min, 300 mg/kg i.p.) of 2.0 ± 0.2 Falls/2 min. The Falls/2 min in data set [8] (3 r.p.m., 30 min, 400 mg/kg i.p.) is on record as 3.6 ± 1.3 Falls/2 min. Besides, in data set [8] (i.p.), the “time of peak effect after injection” value amounted to 15 min.

`CCC1(c2cccnc2)CCC(=O)NC1=O` (stereo not drawn): in data set [1], the “IC50 Desmolase” value is on record as “None”. Further, the “IC50 Aromatase” value in data set [2] (setting [11]) is given as “None”.

For the compound `CCC1(c2cccc(N)c2)CCC(=O)NC1=O` (stereo not drawn) [m-aminoglutethimide, 3-ethyl-3-(3-aminophenyl)glutarimide], the Desmolase inhibition result in data set [1] was “+ + +”. For the same compound, the Aromatase inhibition entry in data set [2] is reported as “+”.

As for `CN(C)CCCN1c2ccccc2Sc2ccc(Cl)cc21` [chlorpromazine], the “unpredictable jumping and darting movements” value in data set [6] (10 mg/kg i.p., particularly on the rotarod) is 5 out of 8.

In the case of `C1CCc2nnnn2CC1` [Pentylenetetrazol, pentylenetetrazol, reference compound], the convulsant activity entry in data set [5] (50 mg/kg after NaCl vehicle, within 5 minutes) is “Increased motor activity was followed by tonic convulsions, then severe clonic extensor convulsions which caused death”.

`CCC1(c2ccnc(C(C)(C)C)c2)CCC(=O)NC1=O` (stereo not drawn) [Example 4]: the “IC50 Desmolase” value in data set [1] was “None”. For the same compound, the midpoint of inhibition in data set [2] (setting [11]), the IC50, lay at 20 µM.
